# Test results: patent publication US20250066351A1, “PYRAZOLO[1,5-A]PYRIDIN-2,3-YL AMIDES AS KV7 CHANNEL ACTIVATORS” (Biohaven Therapeutics Ltd., priority 2022, published 2025)
# Target: T1, hKv7.2/7.3 (Homo sapiens, UniProt O43525+O43526)
# T1 construct: host or cells: HEK cells, tetracycline-inducible expression
# Experiment: Kv7.2/7.3 Activation Assay, QPatch planar patch-clamp single concentration screen
# Format: cell-based
# Conditions: increase in current over baseline, Kv7.2/Kv7.3 co-expressing HEK cells, compound concentration 3 μM, steady-state current at end of 2 s pulse to −30 mV
# Procedure: The ability of compounds to potentiate K-currents in Kv7.2/7.3 containing HEK cells was assessed using planar patch-clamp on the QPatch automated screening platform.
# Cell Line: The hKv7.2/7.3 cell line was obtained from Chantest (Cleveland, OH 44128) cat. #CT6147. These HEK cells will express the Kv7.2/7.3 ion channels when induced.
# Cell Culture: Cells were maintained in a media containing DMEM/F12; 50/50 (GIBCO cat. #11330), 10% Fetal Bovine Serum (FBS) (GIBCO cat. #26140), 100 units/mL Penicillin-Streptomycin (GIBCO cat. #15140), 0.005 mg/mL Blasticidin (INVIVOGEN cat. #ant-bl-1), 0.5 mg/mL Geneticin (GIBCO cat. #10131), 0.1 mg/mL Zeocin (GIBCO cat. #R25001). Cells used in the electrophysiology assay were maintained in a media without Blasticidin, Geneticin and Zeocin for 2 days and channel expression was induced by adding tetracycline (BIOLINE cat. #BIO-87030) at a final concentration of […]. Cells were grown in T-175 flask to ˜75% confluency. Currents were recorded 24 hours after channel induction.
# Compound Plates: Test compounds were prepared by performing serial dilutions on a Biomek NX^P (BECKMAN COULTER). Final dilutions were made in external recording solution with a final DMSO concentration of 0.1% DMSO. For single concentration screens each plate had 10 μM retigabine as a positive control and 0.1% DMSO as a negative control.
# Electrophysiology: On the day of the experiment cells were washed with Hank's Balanced Salt Solution (HBBS) (GIBCO cat. #14175) and harvested with Tryple (GIBCO cat. #12604). Cells were then centrifuged at 2000 rpm for 5 minutes and resuspended in CHO—S-SFM (GIBCO cat. #12052) at […]. Cells were stirred for 30 minutes before experiments were started. External recording solution contained (in mM): NaCl (145), KCl (4), CaCl2 (2), MgCl2 (1), HEPES (10) and Glucose (10); pH was adjusted to 7.4 with NaOH and the osmolarity was adjusted to 300-305 mOsM with sucrose if necessary. Internal solution contained (in mM): KCl (125), KF (10), EGTA (5), Na2ATP (5), MgCl2 (3.2), HEPES (5); pH was adjusted to 7.2 with KOH and the osmolarity was adjusted to 298-302 mOsM with sucrose.
# Potassium channel activity was measured on the QPatch HTX (Sophion Bioscience) using QPlates with 48-wells/plate. Each cell was taken as an independent experiment and only one compound was tested per well. Potassium channel activity was elicited by holding at −80 mV and stepping to −30 mV for 2 s followed by a 100 ms pulse to −120 mV.
# Single concentration screen: Baseline conditions were obtained by recording 5 sweeps in the external solution only, this was repeated for three applications of the external solution. The effect of test compounds on elicited current was then assessed by recording 5 sweeps in the presence of a 3 μM compound solution. The steady-state current at the end of the 2 s pulse to −30 mV was measured to determine the fold increase from baseline.
row,SMILES,QPatch Kv7.2/7.3 Activity
1,"CC(C)(C)CC(=O)Nc1nn2ccc(Cl)cc2c1-c1ccc(F)cc1 [Example 82, N-(5-chloro-3-(4-fluorophenyl)pyrazolo [1,5-a]pyridin-2-yl)-3,3-dimethylbutanamide]",+++ (>6-fold (+++))
2,"Cc1ccc(-c2c(NC(=O)CC(C)(C)O)nn3ccc(C(F)(F)F)cc23)cc1 [Example 18, 3-hydroxy-3-methyl-N-(3-(p-tolyl)-5-(trifluoromethyl)pyrazolo [1,5-a]pyridin-2-yl)butanamide]",+ (2.0-3.99 (+))
3,"CC(C)(O)CC(=O)Nc1nn2ccc(Cl)cc2c1C1CCC1 [Example 53, N-(5-chloro-3-cyclobutylpyrazolo[1,5-a]pyridin-2-yl)-3-hydroxy-3-methylbutanamide]",+ (2.0-3.99 (+))
4,"C[C@](O)(CC(=O)Nc1nn2ccc(Cl)cc2c1-c1ccc(F)cc1)c1ccccc1 [Example 71, (S)-N-(5-chloro-3-(4-fluorophenyl)pyrazolo [1,5-a]pyridin-2-yl)-3-hydroxy-3-phenylbutanamide]",+ (2.0-3.99 (+))
5,"CC(C)(O)CC(=O)Nc1nn2c(C3CC3)cccc2c1C1CCC1 [Example 70, N-(3-cyclobutyl-7-cyclopropylpyrazolo [1,5-a]pyridin-2-yl)-3-hydroxy-3-methylbutanamide]",+ (2.0-3.99 (+))
6,"CC(C)(O)CC(=O)Nc1nn2ccc(Br)cc2c1C1CCC1 [Example 12, N-(5-bromo-3-cyclobutylpyrazolo[1,5-a]pyridin-2-yl)-3-hydroxy-3-methylbutanamide]",+ (2.0-3.99 (+))
7,"CC(C)(O)CC(=O)NNc1nn2ccc(C(F)(F)F)cc2c1-c1ccc(F)cc1 [Example 85, N′-(3-(4-fluorophenyl)-5-(trifluoromethyl)pyrazolo [1,5-a]pyridin-2-yl)-3-hydroxy-3-methylbutanehydrazide]",− (<1.2-fold (−))
8,"C[C@](O)(CC(=O)Nc1nn2ccc(C(F)(F)F)cc2c1-c1ccc(F)cc1)c1ccccn1 [Example 42, (S)-N-(3-(4-fluorophenyl)-5-(trifluoromethyl)pyrazolo [1,5-a]pyridin-2-yl)-3-hydroxy-3-(pyridin-2-yl)butanamide]",+ (2.0-3.99 (+))
9,"CC(C)(C)CC(=O)Nc1nn2cccc(F)c2c1C1CCC1 [Example 60, N-(3-cyclobutyl-4-fluoropyrazolo [1,5-a]pyridin-2-yl)-3,3-dimethylbutanamide]",++ (4.0-5.99 (++))
10,"C[C@](O)(CC(=O)Nc1nn2c(Br)cccc2c1C1CCC1)c1ccccc1 [Example 33, (S)-N-(7-bromo-3-cyclobutylpyrazolo[1,5-a]pyridin-2-yl)-3-hydroxy-3-phenylbutanamide]",+ (2.0-3.99 (+))
11,"Cc1ccc(-c2c(NC(=O)C[C@@](C)(O)c3ccccn3)nn3ccc(C(F)(F)F)cc23)cc1 [Example 40, (R)-3-hydroxy-3-(pyridin-2-yl)-N-(3-(p-tolyl)-5-(trifluoromethyl)pyrazolo[1,5-a]pyridin-2-yl)butanamide]",+ (2.0-3.99 (+))
12,"Cn1cc(-c2c(NC(=O)CC(C)(C)O)nn3ccc(C(F)(F)F)cc23)nn1 [Example 54, 3-hydroxy-3-methyl-N-(3-(1-methyl-1H-1,2,3-triazol-4-yl)-5-(trifluoromethyl)pyrazolo [1,5-a]pyridin-2-yl)butanamide]",− (<1.2-fold (−))
13,"C[C@](O)(CC(=O)Nc1nn2ccc(Cl)cc2c1C1CCC1)c1ccccc1 [Example 31, (S)-N-(5-chloro-3-cyclobutylpyrazolo[1,5-a]pyridin-2-yl)-3-hydroxy-3-phenylbutanamide]",+ (2.0-3.99 (+))
14,"CC(C)(O)CC(=O)Nc1nn2ccc(C(F)(F)F)cc2c1-c1ccc(C(F)(F)F)cc1 [Example 50, 3-hydroxy-3-methyl-N-(5-(trifluoromethyl)-3-(4-(trifluoromethyl)phenyl)pyrazolo [1,5-a]pyridin-2-yl)butanamide]",+ (2.0-3.99 (+))
15,"CC(C)(C)CC(=O)Nc1nn2ccc(C(C)(C)O)cc2c1-c1ccc(F)cc1 [Example 79, N-(3-(4-fluorophenyl)-5-(2-hydroxypropan-2-yl)pyrazolo[1,5-a]pyridin-2-yl)-3,3-dimethylbutanamide]",++ (4.0-5.99 (++))
16,"C[C@@](O)(CC(=O)Nc1nn2ccc(C(F)(F)F)cc2c1C1CCC1)c1ccccc1 [Example 34, (R)-N-(3-cyclobutyl-5-(trifluoromethyl)pyrazolo [1,5-a]pyridin-2-yl)-3-hydroxy-3-phenylbutanamide]",− (<1.2-fold (−))
17,"CC(O)(CC(=O)Nc1nn2ccc(C(F)(F)F)cc2c1C1CCC1)C1CCC1 (stereo not drawn) [Example 23, 3-cyclobutyl-N-(3-cyclobutyl-5-(trifluoromethyl)pyrazolo [1,5-a]pyridin-2-yl)-3-hydroxybutanamide]",+ (2.0-3.99 (+))
18,"C[C@](O)(CC(=O)Nc1nn2c(C(F)(F)F)cccc2c1-c1ccc(F)cc1)c1ccccc1 [Example 78, (S)-N-(3-(4-fluorophenyl)-7-(trifluoromethyl)pyrazolo [1,5-a]pyridin-2-yl)-3-hydroxy-3-phenylbutanamide]",+ (2.0-3.99 (+))
19,"CC(C)(C)CC(=O)Nc1nn2ccc(C(F)(F)F)cc2c1C(C)(C)O [Example 86, N-(3-(2-hydroxypropan-2-yl)-5-(trifluoromethyl)pyrazolo[1,5-a]pyridin-2-yl)-3,3-dimethylbutanamide]",+/− (1.2-1.99-fold (+/−))
20,"O=C(CC(C(F)(F)F)C(F)(F)F)Nc1nn2ccccc2c1C1CCC1 [Example 4, N-(3-cyclobutylpyrazolo[1,5-a]pyridin-2-yl)-4,4,4-trifluoro-3-(trifluoromethyl) butanamide]",+/− (1.2-1.99-fold (+/−))
21,"CC(C)(O)CC(=O)Nc1nn2c(Br)cccc2c1C1CCC1 [Example 19, N-(7-bromo-3-cyclobutylpyrazolo[1,5-a]pyridin-2-yl)-3-hydroxy-3-methylbutanamide]",+ (2.0-3.99 (+))
22,"C[C@](O)(CC(=O)Nc1nn2ccc(C#N)cc2c1C1CCC1)c1ccccn1 [Example 43, (S)-N-(5-cyano-3-cyclobutylpyrazolo[1,5-a]pyridin-2-yl)-3-hydroxy-3-(pyridin-2-yl)butanamide]",+ (2.0-3.99 (+))
23,"CC(C)[C@H](C)C(=O)Nc1nn2ccc(C(F)(F)F)cc2c1C1CCC1 [Example 7, (S)-N-(3-cyclobutyl-5-(trifluoromethyl)pyrazolo [1,5-a]pyridin-2-yl)-2,3-dimethylbutanamide]",+ (2.0-3.99 (+))
24,"CC(C)(C)CC(=O)NNc1nn2ccc(C(F)(F)F)cc2c1-c1ccc(F)cc1 [Example 84, N′-(3-(4-fluorophenyl)-5-(trifluoromethyl)pyrazolo [1,5-a]pyridin-2-yl)-3,3-dimethylbutanehydrazide]",+/− (1.2-1.99-fold (+/−))
25,"CC(C)(O)CC(=O)Nc1nn2ccc(C(F)(F)F)cc2c1-c1ccc(F)c(F)c1 [Example 55, N-(3-(3,4-difluorophenyl)-5-(trifluoromethyl)pyrazolo [1,5-a]pyridin-2-yl)-3-hydroxy-3-methylbutanamide]",+ (2.0-3.99 (+))
26,"Cc1cccc(-c2c(NC(=O)CC(C)(C)O)nn3ccc(C(F)(F)F)cc23)c1 [Example 47, 3-hydroxy-3-methyl-N-(3-(m-tolyl)-5-(trifluoromethyl)pyrazolo [1,5-a]pyridin-2-yl)butanamide]",+ (2.0-3.99 (+))
27,"CC(C)(O)CC(=O)Nc1nn2ccc(C(F)(F)F)cc2c1-c1ccc(Cl)s1 [Example 44, N-(3-(5-chlorothiophen-2-yl)-5-(trifluoromethyl)pyrazolo [1,5-a]pyridin-2-yl)-3-hydroxy-3-methylbutanamide]",+ (2.0-3.99 (+))
